Experimental data as given in patent US8431593B2, “Heteroaryl amide derivatives” (H. Lundbeck A/S, priority 2006, dated 2013).
Where two headings read alike, the source gives them in different places. Blank lines part the entries; values can stand above or below the compound they belong to.

Biological target: T1, P2X7 receptor (Homo sapiens, UniProt Q99572)
T1 construct: host or cells: SH-SY5Y
T1 sequence (Q99572 1-595): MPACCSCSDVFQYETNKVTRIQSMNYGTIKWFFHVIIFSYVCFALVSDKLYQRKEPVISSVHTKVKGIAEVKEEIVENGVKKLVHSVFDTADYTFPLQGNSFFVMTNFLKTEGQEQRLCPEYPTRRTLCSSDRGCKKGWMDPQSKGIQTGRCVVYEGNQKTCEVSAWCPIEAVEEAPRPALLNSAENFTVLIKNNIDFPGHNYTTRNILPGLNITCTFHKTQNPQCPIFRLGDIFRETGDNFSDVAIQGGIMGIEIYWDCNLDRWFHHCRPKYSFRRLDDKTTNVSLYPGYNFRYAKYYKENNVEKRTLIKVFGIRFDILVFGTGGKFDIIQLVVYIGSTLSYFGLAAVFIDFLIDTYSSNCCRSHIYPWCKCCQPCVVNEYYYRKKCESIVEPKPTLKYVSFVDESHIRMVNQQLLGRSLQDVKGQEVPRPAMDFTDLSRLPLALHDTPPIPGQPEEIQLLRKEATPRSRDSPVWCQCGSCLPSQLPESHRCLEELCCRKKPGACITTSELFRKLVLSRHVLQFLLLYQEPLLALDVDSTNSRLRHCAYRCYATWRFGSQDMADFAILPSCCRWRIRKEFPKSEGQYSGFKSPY
Assay: P2X7 calcium mobilization assay, high throughput, antagonist activity (Example 4A)
Type: cell-based
How it was run: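 Cells plated 100,000/well the day before; after 1 h dye loading and one rinse, cells were preincubated 1 h at room temperature with test compound. Calcium mobilization then read on FLIPR^TETRA; maximum RFU corrected by subtracting mean no-agonist response and referenced to mean agonist-control maximum.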

[1] = 50% decrease in the fluorescence response of cells exposed to 80 μM of 2′(3′)-O-(4-benzoyl-benzoyl)adenosine 5′-triphosphate, determined as in Example 4A, read-out: IC50
[2] = fluorescence response of cells exposed to 80 μM 2′(3′)-O-(4-benzoyl-benzoyl)adenosine 5′-triphosphate, Example 4A, read-out: IC50
[3] = 50% decrease in the fluorescence response of cells exposed to 80 μM 2′(3′)-O-(4-benzoyl-benzoyl)adenosine 5′-triphosphate, Example 4A, read-out: IC50
[4] = SH-SY5Y cells, 50% decrease in fluorescence response to 80 μM BzATP, read-out: IC50

IC50 [1]: < 2000 nM
Structure (SMILES): CC(O)CNC(=O)Cc1cn2c(C(=O)NCC3(c4ccc(Cl)cc4)CCCCC3)cccc2n1 (stereo not shown) [Compound 858, N-{[1-(4-chlorophenyl)cyclohexyl]methyl}-2-{2-[(2-hydroxypropyl)amino]-2-oxoethyl} imidazo[1,2-a]pyridine-5-carboxamide]

IC50 [2]: < 2000 nM
Structure (SMILES): N#Cc1ccc(-c2cn3c(C(=O)NCC45CC6CC(CC(C6)C4)C5)cccc3n2)cc1 [Compound 298, N-(adamantan-1-ylmethyl)-2-(4-cyanophenyl)imidazo [1,2-a]pyridine-5-carboxamide]

IC50 [1]: < 2000 nM
Structure (SMILES): O=C(Cc1cn2c(C(=O)NCC3(c4ccc(Cl)cc4)CCCCC3)cccc2n1)NCC1CC1 [Compound 862, N-{[1-(4-chlorophenyl)cyclohexyl]methyl}-2-{2-[(cyclopropylmethyl)amino]-2-oxoethyl} imidazo[1,2-a] pyridine-5-carboxamide]

Structure (SMILES): O=C(N[C@@H]1CN2CCC1CC2)c1cn2c(C(=O)NCC34CC5CC(CC(C5)C3)C4)cccc2n1 [Compound 662, 5-N-(adamantan-1-ylmethyl)-2-N-[(3S)-1-azabicyclo[2.2.2]oct-3-yl]imidazo[1,2-a]pyridine-2,5-dicarboxamide]
IC50 (50% decrease in the fluorescence response of cells exposed to 80 μM of 2′(3′)-O-(4-benzoyl-benzoyl)adenosine 5′-triphosphate, Example 4A, read-out: IC50): < 2000 nM

IC50 [3]: < 2000 nM
Structure (SMILES): CC(C)CN(C)C(=O)c1cn2c(C(=O)NC[C@@H]3CC[C@H]4C[C@@H]3C4(C)C)cccc2n1 [Compound 467, 5-N-{[(1S,2R,5S)-6,6-dimethylbicyclo[3.1.1]hept-2-yl]methyl}-2-N-isobutyl-2-N-methylimidazo[1,2-a]pyridine-2,5-dicarboxamide]

Structure (SMILES): CCOC(=O)Cc1cn2c(NC(=O)CC34CC5CC(CC(C5)C3)C4)cccc2n1 [Compound 145, ethyl {5-[(adamantan-1-ylacetyl)amino]imi-dazo[1,2-a]pyridin-2-yl}acetate]
IC50: < 2000 nM

IC50 [2]: < 2000 nM
Structure (SMILES): O=C(CC12CC3CC(CC(C3)C1)C2)Nc1cccc2nc(C(=O)N3CCC(F)(F)CC3)cn12 [Compound 388, 2-adamantan-l-yl-N-(2-[(4,4-difluoropiperidin-1-yl)carbonyl]imidazo [1,2-a]pyridin-5-yl}acetamide]

IC50 [1]: < 2000 nM
Structure (SMILES): CC(C)CC(CNC(=O)c1cccc2nc(CC(=O)N3CCC[C@@H](N)C3)cn12)c1cccnc1 (stereo partly drawn) [Compound 946, 2-{2-[(3R)-3-aminopiperidin-1-yl]-2-oxoethyl}-N-(4-methyl-2-pyridin-3-ylpentyl) imidazo[1,2-a]pyridine-5-carboxamide]

IC50 [3]: < 2000 nM
Structure (SMILES): CCNCc1cn2c(C(=O)NCC34CC5CC(CC(C5)C3)C4)cccc2n1 [Compound 534, N-(adamantan-1-ylmethyl)-2-[(ethylamino)methyl] imidazo[1,2-a]pyridine-5-carboxamide]

IC50 [3]: < 2000 nM
Structure (SMILES): CC(C)[C@H]1CNCCN1C(=O)Cc1cn2c(C(=O)NC[C@@H]3CC[C@@H]4C[C@H]3C4(C)C)cccc2n1 [Compound 569, N-{[(1R,2R,5R)-6,6-dimethylbicyclo[3.1.1]hept-2-yl]methyl}-2-{2-[(2S)-2-isopropylpiperazin-1-yl]-2-oxoethyl}imidazo[1,2-a]pyridine-5-carboxamide]

IC50 [4]: < 2000 nM
Structure (SMILES): O=C(NCC12CC3CC(CC(C3)C1)C2)c1cccc2nc(CC(=O)N3CCNCC3)cn12 [Compound 64, N-(adamantan-1-ylmethyl)-2-(2-oxo-2-piperazin-1-ylethyl)imidazo[1,2-a]pyridine-5-carboxamide]

IC50 [4]: < 2000 nM
Structure (SMILES): CS(=O)(=O)N1CCN(C(=O)c2cn3c(C(=O)NCC45CC6CC(CC(C6)C4)C5)cccc3n2)CC1 [Compound 97, N-(adamantan-1-ylmethyl)-2-{[4-(methyl-sulfonyl)piperazin-1-yl]carbonyl}imidazo[1,2-a]pyridine-5-carboxamide]

Structure (SMILES): CCOC(=O)c1cnn(Cc2cn3c(C(=O)NCC45CC6CC(CC(C6)C4)C5)cccc3n2)c1 [Compound 204, ethyl 1-({5-[(adamantan-1-ylmethyl)carbamoyl]imi-dazo[1,2-a]pyridin-2-yl}methyl)-1H-pyrazole-4-carboxylate]
IC50: < 2000 nM
